Results on six molecules are retold here after ChEMBL document CHEMBL3739348, “Novel pyrrole derivatives as selective CHK1 inhibitors: design, regioselective synthesis and molecular modeling” (Medchemcomm, 2015).

Molecules are shown by their SMILES.

Assay [1] has as its target Protein kinase C (PKC) (Homo sapiens) (UniProt O94806+P41743+P17252+P05129+Q05655+P05771+Q05513+Q02156+P24723+Q15139+Q04759). Nature of the assay: Inhibition of PKC (unknown origin) at 30 uM by microfluidic assay relative to control.
Assay [2] concerns the target T1, Serine/threonine-protein kinase Chk1 (Homo sapiens) (UniProt O14757).
T1 sequence (whole entry): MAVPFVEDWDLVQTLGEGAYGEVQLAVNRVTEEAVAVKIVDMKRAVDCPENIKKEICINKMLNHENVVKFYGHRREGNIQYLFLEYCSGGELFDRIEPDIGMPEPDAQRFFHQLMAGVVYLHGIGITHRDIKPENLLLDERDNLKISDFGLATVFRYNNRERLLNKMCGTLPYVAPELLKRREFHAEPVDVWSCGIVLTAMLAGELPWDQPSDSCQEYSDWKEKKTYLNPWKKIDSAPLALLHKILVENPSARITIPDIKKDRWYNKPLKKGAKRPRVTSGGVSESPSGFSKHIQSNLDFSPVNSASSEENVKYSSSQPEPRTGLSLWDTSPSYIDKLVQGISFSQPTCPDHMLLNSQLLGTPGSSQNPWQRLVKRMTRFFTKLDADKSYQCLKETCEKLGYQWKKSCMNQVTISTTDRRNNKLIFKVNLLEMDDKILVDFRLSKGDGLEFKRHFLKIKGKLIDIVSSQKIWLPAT
Nature of the assay: Inhibition of CHK1 (unknown origin) at 30 uM by microfluidic assay relative to control.

Assay [3] concerns the target Mitogen-activated protein kinase 3 (Homo sapiens) (UniProt P27361). Briefly: Inhibition of Erk1 (unknown origin) at 30 uM by microfluidic assay relative to control.
Assay [4] concerns the target Mitogen-activated protein kinase 1 (Homo sapiens) (UniProt P28482). Nature of the assay: Inhibition of Erk2 (unknown origin) at 30 uM by microfluidic assay relative to control.
Assay [5] addresses Glycogen synthase kinase-3 (Homo sapiens) (UniProt P49840+P49841). Nature of the assay: Inhibition of GSK3 (unknown origin) at 30 uM by microfluidic assay relative to control. It is filed as protein assay.
For assay [6], the target named is Mitogen-activated protein kinase 14 (Homo sapiens) (UniProt Q16539). Nature of the assay: Inhibition of p38a (unknown origin) at 30 uM by microfluidic assay relative to control.
Mitogen-activated protein kinase 14 (Homo sapiens), sequence (Q16539 whole entry): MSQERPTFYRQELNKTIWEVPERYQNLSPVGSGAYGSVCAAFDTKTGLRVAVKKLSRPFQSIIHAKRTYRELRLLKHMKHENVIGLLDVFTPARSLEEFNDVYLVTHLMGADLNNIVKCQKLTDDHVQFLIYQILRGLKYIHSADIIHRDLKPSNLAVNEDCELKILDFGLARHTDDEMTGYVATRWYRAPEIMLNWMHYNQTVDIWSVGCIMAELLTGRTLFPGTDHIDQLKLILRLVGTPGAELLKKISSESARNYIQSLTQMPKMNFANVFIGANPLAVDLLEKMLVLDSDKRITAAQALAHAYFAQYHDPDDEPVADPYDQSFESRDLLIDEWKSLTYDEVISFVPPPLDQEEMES
Assay [7] has as its target Tyrosine-protein kinase ABL1 (Homo sapiens) (UniProt P00519). Briefly: Inhibition of ABL (unknown origin) at 30 uM by microfluidic assay relative to control.
Assay [8] concerns the target Tyrosine-protein kinase Fyn (Homo sapiens) (UniProt P06241). Briefly: Inhibition of FYN (unknown origin) at 30 uM by microfluidic assay relative to control.
Assay [9] concerns the target Insulin receptor (Homo sapiens) (UniProt P06213). Briefly: Inhibition of InsR (unknown origin) at 30 uM by microfluidic assay relative to control.
Assay [10] addresses Tyrosine-protein kinase Lyn (Homo sapiens) (UniProt P07948). Nature of the assay: Inhibition of LYN (unknown origin) at 30 uM by microfluidic assay relative to control.
For assay [11], the target named is Tyrosine-protein kinase Lck (Homo sapiens) (UniProt P06239). Briefly: Inhibition of LCK (unknown origin) at 30 uM by microfluidic assay relative to control.
Assay [12] deals with Hepatocyte growth factor receptor (Homo sapiens) (UniProt P08581). Briefly: Inhibition of MET (unknown origin) at 30 uM by microfluidic assay relative to control.
Assay [13] deals with Proto-oncogene tyrosine-protein kinase Src (Homo sapiens) (UniProt P12931). Briefly: Inhibition of SRC (unknown origin) at 30 uM by microfluidic assay relative to control.
Assay [14] has as its target Epidermal growth factor receptor (Homo sapiens, UniProt P00533). Nature of the assay: Inhibition of EGFR (unknown origin) by microfluidic assay relative to control.
Assay [15] has as its target T2, Serine/threonine-protein kinase Chk1 (Homo sapiens, UniProt O14757).
T2 sequence (O14757 whole entry): T1 sequence (whole entry)
Briefly: Inhibition of CHK1 (unknown origin) by microfluidic assay relative to control.

Glycogen synthase kinase-3 (Homo sapiens), sequence (P49840 whole entry, looked up): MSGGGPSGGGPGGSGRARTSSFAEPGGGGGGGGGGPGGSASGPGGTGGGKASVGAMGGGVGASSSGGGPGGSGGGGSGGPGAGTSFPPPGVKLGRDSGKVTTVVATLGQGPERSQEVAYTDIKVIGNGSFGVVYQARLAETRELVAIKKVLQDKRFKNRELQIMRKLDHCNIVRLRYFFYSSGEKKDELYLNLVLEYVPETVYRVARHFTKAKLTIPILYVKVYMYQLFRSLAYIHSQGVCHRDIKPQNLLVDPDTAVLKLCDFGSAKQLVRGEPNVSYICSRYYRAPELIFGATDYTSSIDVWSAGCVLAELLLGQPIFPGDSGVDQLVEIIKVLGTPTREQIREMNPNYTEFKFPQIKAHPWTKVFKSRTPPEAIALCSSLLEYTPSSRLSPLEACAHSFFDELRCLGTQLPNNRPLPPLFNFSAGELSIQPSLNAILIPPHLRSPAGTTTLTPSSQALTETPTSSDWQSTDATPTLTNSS
Glycogen synthase kinase-3 (Homo sapiens), sequence (P49841 whole entry, looked up): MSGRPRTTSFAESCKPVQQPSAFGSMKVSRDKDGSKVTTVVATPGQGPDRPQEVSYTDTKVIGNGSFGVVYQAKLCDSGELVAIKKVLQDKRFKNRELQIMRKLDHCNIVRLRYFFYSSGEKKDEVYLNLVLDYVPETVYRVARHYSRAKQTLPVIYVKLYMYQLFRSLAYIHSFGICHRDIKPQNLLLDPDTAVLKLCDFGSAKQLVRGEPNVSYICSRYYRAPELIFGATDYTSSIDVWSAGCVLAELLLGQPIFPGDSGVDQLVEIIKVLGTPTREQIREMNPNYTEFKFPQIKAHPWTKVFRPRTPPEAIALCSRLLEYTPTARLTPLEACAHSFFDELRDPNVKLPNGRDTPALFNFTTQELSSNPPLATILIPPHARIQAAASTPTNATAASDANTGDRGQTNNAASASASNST
Tyrosine-protein kinase Lyn (Homo sapiens), sequence (P07948 2-512 limits assumed): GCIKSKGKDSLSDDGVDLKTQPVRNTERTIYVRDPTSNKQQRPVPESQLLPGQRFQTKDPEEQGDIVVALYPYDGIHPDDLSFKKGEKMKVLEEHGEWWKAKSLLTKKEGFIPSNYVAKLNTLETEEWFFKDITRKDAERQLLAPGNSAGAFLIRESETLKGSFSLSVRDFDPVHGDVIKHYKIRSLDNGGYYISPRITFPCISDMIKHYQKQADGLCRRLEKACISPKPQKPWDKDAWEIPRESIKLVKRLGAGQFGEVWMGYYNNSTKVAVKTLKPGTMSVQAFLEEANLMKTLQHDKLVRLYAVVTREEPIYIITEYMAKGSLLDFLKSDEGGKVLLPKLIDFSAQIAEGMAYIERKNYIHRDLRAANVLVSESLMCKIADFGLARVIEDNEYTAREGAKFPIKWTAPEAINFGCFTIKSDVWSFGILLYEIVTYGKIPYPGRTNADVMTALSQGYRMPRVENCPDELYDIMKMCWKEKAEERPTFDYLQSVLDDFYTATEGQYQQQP
Epidermal growth factor receptor, sequence (P00533 whole entry): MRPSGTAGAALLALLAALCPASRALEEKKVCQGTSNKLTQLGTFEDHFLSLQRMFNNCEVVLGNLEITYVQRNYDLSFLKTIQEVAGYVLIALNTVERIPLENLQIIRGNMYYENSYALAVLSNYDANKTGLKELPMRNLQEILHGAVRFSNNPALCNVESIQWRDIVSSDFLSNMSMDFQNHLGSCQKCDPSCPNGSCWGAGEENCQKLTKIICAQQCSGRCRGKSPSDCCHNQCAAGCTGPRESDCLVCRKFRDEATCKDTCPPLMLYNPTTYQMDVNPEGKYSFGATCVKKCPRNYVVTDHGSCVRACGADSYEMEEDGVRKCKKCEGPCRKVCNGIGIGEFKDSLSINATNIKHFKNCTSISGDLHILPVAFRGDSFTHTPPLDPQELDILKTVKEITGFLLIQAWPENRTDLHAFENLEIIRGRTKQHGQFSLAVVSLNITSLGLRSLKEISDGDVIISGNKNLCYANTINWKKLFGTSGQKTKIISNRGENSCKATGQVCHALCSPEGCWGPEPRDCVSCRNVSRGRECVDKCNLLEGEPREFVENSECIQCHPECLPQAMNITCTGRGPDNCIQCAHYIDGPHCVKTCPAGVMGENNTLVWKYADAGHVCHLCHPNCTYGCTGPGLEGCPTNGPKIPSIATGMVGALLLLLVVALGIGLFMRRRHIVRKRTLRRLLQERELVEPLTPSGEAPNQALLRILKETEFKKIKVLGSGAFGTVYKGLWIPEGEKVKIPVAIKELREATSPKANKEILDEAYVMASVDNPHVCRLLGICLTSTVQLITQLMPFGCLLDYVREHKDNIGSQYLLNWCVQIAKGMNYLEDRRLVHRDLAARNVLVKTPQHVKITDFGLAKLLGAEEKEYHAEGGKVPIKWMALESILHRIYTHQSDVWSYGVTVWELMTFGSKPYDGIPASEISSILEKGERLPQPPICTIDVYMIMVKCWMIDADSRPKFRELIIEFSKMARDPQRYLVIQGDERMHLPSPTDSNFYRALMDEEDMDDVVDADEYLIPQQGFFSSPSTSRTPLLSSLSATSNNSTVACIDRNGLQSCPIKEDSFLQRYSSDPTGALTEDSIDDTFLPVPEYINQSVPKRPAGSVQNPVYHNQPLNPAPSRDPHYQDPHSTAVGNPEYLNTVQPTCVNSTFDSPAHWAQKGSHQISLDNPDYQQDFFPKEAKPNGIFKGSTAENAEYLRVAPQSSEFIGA
Insulin receptor (Homo sapiens), sequence (P06213 28-758 limits assumed): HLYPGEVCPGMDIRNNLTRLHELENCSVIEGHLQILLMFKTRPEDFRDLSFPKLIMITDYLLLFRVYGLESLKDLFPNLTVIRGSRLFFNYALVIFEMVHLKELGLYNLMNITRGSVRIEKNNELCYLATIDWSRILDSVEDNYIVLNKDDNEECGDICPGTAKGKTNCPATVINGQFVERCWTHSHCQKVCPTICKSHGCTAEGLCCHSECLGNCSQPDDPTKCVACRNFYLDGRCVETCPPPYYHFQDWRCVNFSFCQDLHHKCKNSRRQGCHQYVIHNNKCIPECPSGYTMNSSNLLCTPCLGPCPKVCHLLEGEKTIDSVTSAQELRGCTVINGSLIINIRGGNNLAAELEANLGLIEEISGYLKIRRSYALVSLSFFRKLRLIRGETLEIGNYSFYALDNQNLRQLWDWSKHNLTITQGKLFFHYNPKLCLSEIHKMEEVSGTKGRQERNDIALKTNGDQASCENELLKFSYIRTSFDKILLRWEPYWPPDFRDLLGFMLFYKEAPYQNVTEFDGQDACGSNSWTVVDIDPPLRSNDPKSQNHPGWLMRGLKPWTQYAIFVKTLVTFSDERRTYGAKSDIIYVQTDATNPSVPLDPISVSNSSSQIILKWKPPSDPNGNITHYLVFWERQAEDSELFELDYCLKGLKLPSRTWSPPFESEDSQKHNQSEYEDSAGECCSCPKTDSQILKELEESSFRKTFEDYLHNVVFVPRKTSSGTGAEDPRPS
Insulin receptor (Homo sapiens), sequence (P06213 763-1382 limits assumed): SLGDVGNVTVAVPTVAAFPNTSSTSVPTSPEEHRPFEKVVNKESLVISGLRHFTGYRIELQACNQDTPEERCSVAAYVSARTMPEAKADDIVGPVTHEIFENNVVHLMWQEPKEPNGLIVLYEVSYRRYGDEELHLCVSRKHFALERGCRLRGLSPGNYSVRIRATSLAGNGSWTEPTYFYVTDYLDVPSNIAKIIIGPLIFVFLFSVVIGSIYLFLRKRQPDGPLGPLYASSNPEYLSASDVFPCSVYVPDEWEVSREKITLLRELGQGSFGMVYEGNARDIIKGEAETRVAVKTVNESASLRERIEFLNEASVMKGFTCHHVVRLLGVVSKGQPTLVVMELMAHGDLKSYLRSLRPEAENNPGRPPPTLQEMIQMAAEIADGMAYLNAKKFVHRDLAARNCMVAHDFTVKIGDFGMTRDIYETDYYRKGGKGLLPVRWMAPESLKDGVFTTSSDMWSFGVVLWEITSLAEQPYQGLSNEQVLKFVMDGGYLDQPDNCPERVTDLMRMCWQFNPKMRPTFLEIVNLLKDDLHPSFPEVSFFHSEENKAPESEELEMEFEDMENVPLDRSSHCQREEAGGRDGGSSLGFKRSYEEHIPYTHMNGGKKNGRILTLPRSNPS
Tyrosine-protein kinase Fyn (Homo sapiens), sequence (P06241 2-537 limits assumed): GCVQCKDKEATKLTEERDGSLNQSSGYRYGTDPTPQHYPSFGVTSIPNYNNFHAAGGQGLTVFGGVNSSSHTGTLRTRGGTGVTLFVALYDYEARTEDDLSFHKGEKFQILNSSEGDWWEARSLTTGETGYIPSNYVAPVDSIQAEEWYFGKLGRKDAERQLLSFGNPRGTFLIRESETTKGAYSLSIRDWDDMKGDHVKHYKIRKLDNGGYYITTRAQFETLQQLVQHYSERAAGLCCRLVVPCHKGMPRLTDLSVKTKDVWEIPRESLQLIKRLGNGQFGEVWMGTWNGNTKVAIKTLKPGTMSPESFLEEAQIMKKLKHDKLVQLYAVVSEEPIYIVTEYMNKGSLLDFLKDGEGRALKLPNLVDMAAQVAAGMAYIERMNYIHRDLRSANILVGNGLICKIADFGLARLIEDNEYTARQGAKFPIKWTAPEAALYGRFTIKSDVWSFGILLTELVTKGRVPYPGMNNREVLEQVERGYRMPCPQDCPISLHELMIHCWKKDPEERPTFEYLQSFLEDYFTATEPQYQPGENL

`Cc1[nH]c(-c2ccccc2)c(-c2ccccc2)c1C(=O)c1cn(-c2ccccc2)nc1-c1ccccc1`: the inhibition (as a rule, the change of the read-out against control, counted positive when it falls) in [1] worked out at 67%; in assay [2] it was 78%; in assay [3], 7%; in assay [4], 35%; in [5], 3%; in assay [6] it was 12%. For the same molecule, the inhibition in assay [7] turned out to be 3%; in [8], 21%; in [9] it was 4%; in assay [10], 24%; in assay [11], 44%; in [12] it was 45%. The same molecule showed an inhibition in [13] of 12%. The 50% inhibitory concentration (IC50) – broadly, the point on the concentration scale where inhibition reaches its midpoint – in assay [14] was 2560 nM; in assay [15], 910 nM.
As for `Cc1[nH]c(-c2ccccc2)c(-c2ccccc2)c1C(=O)c1coc2ccc(O)cc12`, the inhibition in [1] came to 32%; in assay [2], 90%; in assay [3], 4%; in assay [4] it was 3%; in assay [5], 3%; in assay [6] it was 24%. The inhibition is 3% in assay [7]; 23% in assay [8]; 2% in assay [9]; 21% in [10]; 32% in [11]; 32% in assay [12]. Moreover, the inhibition in assay [13] came out at 32%. Moreover, the IC50 in [14] was determined as 3670 nM; in assay [15], 450 nM.
Take `Cc1[nH]c(-c2ccccc2)c(-c2ccccc2)c1-c1ccc(NC(=O)c2ccccc2)c(=O)o1`: the inhibition in assay [1] stood at 65%; in assay [2] it was 80%; in [3], 5%; in [4], 4%; in [5], 2%; in [6], 32%. Also, the inhibition in [7] came out at 2%; in [8], 21%; in assay [9], 3%; in assay [10], 33%; in [11] it was 34%; in assay [12], 22%. The molecule also registered an inhibition in assay [13] of 12%. For the same molecule, the values for the IC50 in assay [14] and in [15] were 2890 nM and 780 nM, respectively.
`CC(=O)c1nn(-c2ccccc2)cc1C(=O)c1c(C)[nH]c(-c2ccccc2)c1-c1ccccc1`: the inhibition in assay [1] came to 33%; in assay [2], 100%; in [3] it was 3%; in assay [4], 21%; in [5] it was 12%; in assay [6] it was 3%. The inhibition was determined as 2% in assay [7]; 2% in assay [8]; 2% in assay [9]; 3% in [10]; 22% in [11]; 32% in assay [12]. Moreover, the inhibition in [13] was 21%. For the same molecule, the IC50 in [14] is 4670 nM; in assay [15], 120 nM.
Turning to `Cc1[nH]c(-c2ccccc2)c(-c2ccccc2)c1-c1nnc(C)c2nn(-c3ccccc3)cc12`, the inhibition in assay [1] was 13%; in assay [2], 83%; in [3], 6%; in assay [4] it was 32%; in assay [5], 2%; in assay [6], 4%. The inhibition in assay [7] amounted to 1%; in assay [8], 12%; in assay [9], 1%; in assay [10], 3%; in assay [11] it was 43%; in [12], 5%. This molecule returned an inhibition in [13] of 43%. In addition, the IC50 in assay [14] was determined as 3890 nM; in [15], 700 nM.
In the case of `CCOC(=O)c1nn(-c2ccccc2)cc1C(=O)c1c(C)[nH]c(-c2ccccc2)c1-c1ccccc1`, the inhibition came to 12% in [1]; 85% in [2]; 7% in assay [3]; 32% in assay [4]; 13% in assay [5]; 2% in [6]. Besides, the inhibition in assay [7] was 2%; in assay [8], 21%; in assay [9], 2%; in assay [10], 5%; in assay [11] it was 23%; in assay [12], 6%. In assay [13], this molecule displayed an inhibition of 23%. The IC50 in assay [14] worked out at 3220 nM; in assay [15], 670 nM.
